According to patent US9101632B2, “Kinase inhibitors, prodrug forms thereof and their use in therapy” (AUCKLAND UNISERVICES LIMITED, priority 2009, dated 2015):
Structures can show the parent of a compound that is named as a salt. Where two headings read alike, the source gives them in different places.

Columns and labels:
p44/42 MAPK (Erk1/2) = experiment: Inhibition of p44/42 MAPK (Erk1/2) phosphorylation in EGF-stimulated intact A431 cells (Western immunoblotting); format: cell-based, human; details: for downstream p44/42 MAPK(Erk 1/2) phosphorylation (Thr202/Tyr 204), result in words: 1 hour treatment
Method: (§1) A431 cells were seeded into 6 well plates (with αMEM+5% FCS). The following day, plates were washed once with serum-free medium and grown for 18 hours in serum-free medium (αMEM) before being exposed to a range of inhibitor or prodrug concentrations for 1 hour and then stimulated for 15 minutes with 100 ng/ml epidermal growth factor (EGF receptor ligand). Next cells were washed with ice cold PBS and lysed in modified RIPA buffer on ice (30 min). Lysates were vortexed and clarify by spinning before protein concentrations of samples was determined by BCA assay. […] All antibodies were diluted in 2% BSA TBS-Tween 0.1%. To detect phospho-EGFR (Tyr 1068) the monoclonal antibody (1:500; Cell Signalling #2234) was incubated overnight at 4° C. and binding was detected with goat-anti-Rabbit-IgG-HRP conjugated secondary antibody (1:5000; Santa Cruz #SC2054; 3 h RT). To detect downstream phospho-p44/42 MAPK(Erk 1/2) (Thr202/Tyr 204) the monoclonal antibody (Cell Signalling #4370) was used at a 1:500 dilution. The blot was then treated with Goat anti-rabbit IgG-HRP conjugated secondary antibody (Santa Cruz Biotechnology, Inc. sc-2054) for three hours at a ratio of 1:5000. To normalise for any inaccuracy in gel loading, each blot was probed with anti-β-actin antibody (Abacus ALS #MAB-1501R, 1:2000 dilution). The following day, the blot was treated with Goat anti-mouse IgG-HRP conjugated secondary antibody (Santa Cruz Biotechnology, Inc. sc-2055) for one hour at a 1:5000 ratio. Protein bands were visualized using Amersham ECL Plus Western Blotting Detection Reagent (GE Healthcare RPN2132). Densitometry was determined using Image J software. Values normalized to β-actin were plotted on SigmaPlot 11.0.

H1975 cells = experiment: Inhibition of cellular proliferation (sulforhodamine B staining); details: for H1975 HCR (Hypoxic Cytotoxicity Ratio): fold change in intra-experimental IC50, 4 hours anoxia relative to oxic only
erbB1 (EGFR) = erbB1 (EGFR) (Homo sapiens, UniProt P00533); experiment: Inhibition of erbB1 autophosphorylation in EGF-stimulated intact A431 cells (Western immunoblotting); format: cell-based; details: 1 hour treatment, phospho-EGFR (Tyr 1068), β-actin corrected
Method: as §1

A431 cells = experiment: Inhibition of cellular proliferation (sulforhodamine B staining)
SKOV3 cells = experiment: as above; details: for SKOV3 HCR (Hypoxic Cytotoxicity Ratio): fold change in intra-experimental IC50, 4 hours anoxia relative to oxic only
A431 tumours = details: A431 xenograft, q3dx4, intraperitoneal; for Drug related deaths: lactate buffer pH 4; for TGD (Tumour Growth Delay): % increase in time to RTV4 relative to control; for Weight Loss Nadir (%): mean nadir relative to day 0 weight
[1] = Fragmentation rate constant of 1-electron reduced prodrugs by pulse radiolysis; format: physicochemical; details: formation of benzyl-type radicals absorbing in the 360-390 nm region
Excerpt: The rate constants for fragmentation, kfrag, of the 1-electron reduced prodrugs can be measured using pulse radiolysis to observe the time-resolved formation of the absorption spectrum of the benzyl-type radical produced upon fragmentation of the radical anion.

H1975 tumours = details: for Drug related deaths / Weight Loss Nadir (%): H1975 xenograft, q3dx4, intraperitoneal; for Drug related deaths: lactate buffer pH 4; for Weight Loss Nadir (%): mean nadir relative to day 0 weight
[2] = pulse radiolysis, determined against methylviologen
[3] = read-out: Cellular Growth Inhibition IC50 H1975 Anoxic, initial 4 hours of the 24 hour exposure under anoxic conditions
[4] = read-out: Cellular Growth Inhibition IC50 H1975 Oxic, 24 hour exposure entirely under oxic conditions, washed, further 4 days
[5] = read-out: Cellular Growth Inhibition IC50 A431 Anoxic, initial 4 hours of the 24 hour exposure under anoxic conditions
[6] = read-out: Cellular Growth Inhibition IC50 A431 Oxic, 24 hour exposure entirely under oxic conditions, washed, further 4 days
[7] = read-out: Cellular Growth Inhibition IC50 SKOV3 Anoxic, initial 4 hours of the 24 hour exposure under anoxic conditions
[8] = read-out: Cellular Growth Inhibition IC50 SKOV3 Oxic, 24 hour exposure entirely under oxic conditions, washed, further 4 days

Sequence of erbB1 (EGFR) (P00533 25-1210): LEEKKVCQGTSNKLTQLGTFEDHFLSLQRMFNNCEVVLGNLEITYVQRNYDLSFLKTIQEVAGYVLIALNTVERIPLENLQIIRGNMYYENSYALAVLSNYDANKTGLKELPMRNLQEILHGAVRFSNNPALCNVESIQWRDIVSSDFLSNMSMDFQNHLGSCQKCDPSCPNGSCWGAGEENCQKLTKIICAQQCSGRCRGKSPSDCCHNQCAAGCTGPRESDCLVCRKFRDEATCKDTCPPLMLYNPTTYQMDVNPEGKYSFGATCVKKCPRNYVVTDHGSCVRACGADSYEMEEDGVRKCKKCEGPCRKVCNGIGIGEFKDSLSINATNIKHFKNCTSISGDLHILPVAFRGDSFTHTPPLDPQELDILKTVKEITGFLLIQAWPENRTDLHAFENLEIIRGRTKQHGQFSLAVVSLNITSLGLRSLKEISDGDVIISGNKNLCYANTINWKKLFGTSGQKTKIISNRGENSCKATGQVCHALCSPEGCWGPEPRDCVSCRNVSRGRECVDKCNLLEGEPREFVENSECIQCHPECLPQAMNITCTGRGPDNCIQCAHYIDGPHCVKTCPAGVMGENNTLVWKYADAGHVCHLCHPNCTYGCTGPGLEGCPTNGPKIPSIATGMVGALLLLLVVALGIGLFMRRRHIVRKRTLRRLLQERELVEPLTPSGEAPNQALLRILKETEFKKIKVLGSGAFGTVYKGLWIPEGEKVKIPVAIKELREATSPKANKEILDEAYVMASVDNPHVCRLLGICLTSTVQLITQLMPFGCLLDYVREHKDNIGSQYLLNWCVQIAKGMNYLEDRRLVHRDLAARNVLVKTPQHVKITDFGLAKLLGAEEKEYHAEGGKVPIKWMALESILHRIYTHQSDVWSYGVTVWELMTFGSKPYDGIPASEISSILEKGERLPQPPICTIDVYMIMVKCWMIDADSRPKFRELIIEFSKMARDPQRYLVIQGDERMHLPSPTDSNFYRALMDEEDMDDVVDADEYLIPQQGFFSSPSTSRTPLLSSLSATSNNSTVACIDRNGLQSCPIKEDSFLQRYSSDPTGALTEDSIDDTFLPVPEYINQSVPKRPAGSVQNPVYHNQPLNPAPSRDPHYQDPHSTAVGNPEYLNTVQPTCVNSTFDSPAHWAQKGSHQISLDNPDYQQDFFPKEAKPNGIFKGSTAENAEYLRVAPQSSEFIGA

## CN(C)C/C=C/C(=O)Nc1cc2c(Nc3ccc(Br)c(Cl)c3)ncnc2cn1 [Compound 6, (2E)-N-[4-(4-bromo-3-chloroanilino)pyrido[3,4-d]pyrimidin-6-yl]-4-(dimethylamino)-2-butenamide]
p44/42 MAPK (Erk1/2)
  downstream p44/42 MAPK(Erk 1/2) phosphorylation (Thr202/Tyr 204), result in words: coordinate loss
H1975 cells
  H1975 HCR (Hypoxic Cytotoxicity Ratio): 0.7
H1975 cells; [3]
  IC50: 220 nM
H1975 cells; [4]
  IC50: 150 nM
erbB1 (EGFR)
  IC50: 25 nM
A431 cells; [5]
  IC50: 5 nM
A431 cells; [6]
  IC50: 5 nM
SKOV3 cells
  SKOV3 HCR (Hypoxic Cytotoxicity Ratio): 0.7
SKOV3 cells; [7]
  IC50: 550 nM
SKOV3 cells; [8]
  IC50: 200 nM
A431 tumours
  Drug related deaths: 0
  TGD (Tumour Growth Delay): >250%
  Weight Loss Nadir (%): −1.5 ± 0.8%

## Cc1nc([N+](=O)[O-])c(C[N+](C)(C)C/C=C/C(=O)Nc2cc3c(Nc4ccc5c(cnn5Cc5cccc(F)c5)c4)ncnc3cn2)n1C (as salt: bromide) [Compound 14, (2E)-N-[(1,2-dimethyl-4-nitro-1H-imidazol-5-yl)methyl]-4-[(4-{[1-(3-fluorobenzyl)-1H-indazol-5-yl]amino}pyrido[3,4-d]pyrimidin-6-yl)amino]-N,N-dimethyl-4-oxo-2-buten-1-ammonium bromide]
other
  melting point: 188 to 192 °C (dec.)

## Cn1cnc([N+](=O)[O-])c1C[N+](C)(C)C/C=C/C(=O)Nc1cc2c(Nc3ccc(OCc4ccccn4)c(Cl)c3)ncnc2cn1 [Compound 15, (2E)-4-({4-[3-chloro-4-(2-pyridinylmethoxy)anilino]pyrido[3,4-d]pyrimidin-6-yl}amino)-N,N-dimethyl-N-[(1-methyl-4-nitro-1H-imidazol-5-yl)methyl]-4-oxo-2-buten-1-ammonium bromide]
p44/42 MAPK (Erk1/2); Homo sapiens, A-431, 1 hour treatment, read-out: IC50 p44/42 MAPK(Erk 1/2) phosphorylation (Thr202/Tyr 204)
  IC50: 8900 nM
H1975 cells; [3]
  IC50: 430 nM
H1975 cells; [4]
  IC50: 26000 nM
erbB1 (EGFR)
  IC50: 5290 nM
A431 cells; [5]
  IC50: 300 nM
A431 cells; [6]
  IC50: 10000 nM
SKOV3 cells; [7]
  IC50: 600 nM
SKOV3 cells; [8]
  IC50: 159000 nM
[1]
  kfrag./s^−1 rate constant for fragmentation: 60 ± 10 s⁻¹
H1975 tumours; H1975 tumours, q3dx4
  growth delay of prodrug compared to its cognate kinase inhibitor, result in words: extended period of growth delay
H1975 tumours
  Drug related deaths: 0
  Weight Loss Nadir (%): −9.4 ± 3.3%
[2]
  E(1)/V 1-electron reduction potential: −0.423 V

## CN(C)C/C=C/C(=O)Nc1cc2c(Nc3ccc(Cl)c(Br)c3)ncnc2cn1 [Compound 5, (2E)-N-[4-(3-bromo-4-chloroanilino)pyrido[3,4-d]pyrimidin-6-yl]-4-(dimethylamino)-2-butenamide]
p44/42 MAPK (Erk1/2)
  downstream p44/42 MAPK(Erk 1/2) phosphorylation (Thr202/Tyr 204), result in words: coordinate loss
H1975 cells
  H1975 HCR (Hypoxic Cytotoxicity Ratio): 0.9
H1975 cells; [3]
  IC50: 500 nM
H1975 cells; [4]
  IC50: 290 nM
erbB1 (EGFR)
  IC50: 39.5 nM
A431 cells; fold change in intra-experimental IC50, 4 hours anoxia relative to oxic only
  A431 HCR (Hypoxic Cytotoxicity Ratio): 1.0
A431 cells; [5]
  IC50: 10 nM
A431 cells; [6]
  IC50: 9 nM
SKOV3 cells
  SKOV3 HCR (Hypoxic Cytotoxicity Ratio): 0.9
SKOV3 cells; [7]
  IC50: 450 nM
SKOV3 cells; [8]
  IC50: 300 nM
A431 tumours
  Drug related deaths: 0
  TGD (Tumour Growth Delay): >250%
  Weight Loss Nadir (%): −6.3 ± 4.5%
H1975 tumours
  Drug related deaths: 1
  Weight Loss Nadir (%): −8.5 ± 0.6%

## Cn1cnc([N+](=O)[O-])c1C[N+](C)(C)C/C=C/C(=O)Nc1cc2c(Nc3ccc4c(cnn4Cc4cccc(F)c4)c3)ncnc2cn1 [Compound 13, (2E)-4-[(4-{[1-(3-fluorobenzyl)-1H-indazol-5-yl]amino}pyrido[3,4-d]pyrimidin-6-yl)amino]N,N-dimethyl-N-[(1-methyl-4-nitro-1H-imidazol-5-yl)methyl]-4-oxo-2-buten-1-ammonium bromide]
H1975 cells; [3]
  IC50: 3300 nM
H1975 cells; [4]
  IC50: 92000 nM
A431 cells; [5]
  IC50: 240 nM
A431 cells; [6]
  IC50: 6200 nM
SKOV3 cells; [7]
  IC50: 1600 nM
SKOV3 cells; [8]
  IC50: 315000 nM
[1]
  kfrag./s^−1 rate constant for fragmentation: 60 ± 10 s⁻¹
H1975 tumours
  Drug related deaths: 0
  Weight Loss Nadir (%): −4.1 ± 2.5%
[2]
  E(1)/V 1-electron reduction potential: −0.417 V

## Cn1cnc([N+](=O)[O-])c1C[N+](C)(C)C/C=C/C(=O)Nc1cc2c(Nc3ccc(Cl)c(Cl)c3)ncnc2cn1 [Compound 16, (2E)-4-{[4-(3,4-dichloroanilino)pyrido[3,4-d]pyrimidin-6-yl]amino}-N,N-dimethyl-N-[(1-methyl-4-nitro-1H-imidazol-5-yl)methyl]-4-oxo-2-buten-1-ammonium bromide]
H1975 cells; [3]
  IC50: 400 nM
H1975 cells; [4]
  IC50: 32000 nM
A431 cells; [5]
  IC50: 15 nM
A431 cells; [6]
  IC50: 330 nM
SKOV3 cells; [7]
  IC50: 530 nM
SKOV3 cells; [8]
  IC50: 40000 nM
[1]
  kfrag./s^−1 rate constant for fragmentation: 60 ± 10 s⁻¹
H1975 tumours
  Drug related deaths: 0
  Weight Loss Nadir (%): −10.1 ± 0.7%
[2]
  E(1)/V 1-electron reduction potential: −0.418 V
